Results taken from ChEMBL document CHEMBL5465560, “Selectivity Literature for EUbOPEN Chemogenomic Library” (2024).

Key:
[1] = target: T1, Cyclin-G-associated kinase (Homo sapiens) (UniProt O14976); assay: Selectivity interaction (Kinase panel (DSF assay)) EUB0001558a GAK
T1 sequence (whole entry): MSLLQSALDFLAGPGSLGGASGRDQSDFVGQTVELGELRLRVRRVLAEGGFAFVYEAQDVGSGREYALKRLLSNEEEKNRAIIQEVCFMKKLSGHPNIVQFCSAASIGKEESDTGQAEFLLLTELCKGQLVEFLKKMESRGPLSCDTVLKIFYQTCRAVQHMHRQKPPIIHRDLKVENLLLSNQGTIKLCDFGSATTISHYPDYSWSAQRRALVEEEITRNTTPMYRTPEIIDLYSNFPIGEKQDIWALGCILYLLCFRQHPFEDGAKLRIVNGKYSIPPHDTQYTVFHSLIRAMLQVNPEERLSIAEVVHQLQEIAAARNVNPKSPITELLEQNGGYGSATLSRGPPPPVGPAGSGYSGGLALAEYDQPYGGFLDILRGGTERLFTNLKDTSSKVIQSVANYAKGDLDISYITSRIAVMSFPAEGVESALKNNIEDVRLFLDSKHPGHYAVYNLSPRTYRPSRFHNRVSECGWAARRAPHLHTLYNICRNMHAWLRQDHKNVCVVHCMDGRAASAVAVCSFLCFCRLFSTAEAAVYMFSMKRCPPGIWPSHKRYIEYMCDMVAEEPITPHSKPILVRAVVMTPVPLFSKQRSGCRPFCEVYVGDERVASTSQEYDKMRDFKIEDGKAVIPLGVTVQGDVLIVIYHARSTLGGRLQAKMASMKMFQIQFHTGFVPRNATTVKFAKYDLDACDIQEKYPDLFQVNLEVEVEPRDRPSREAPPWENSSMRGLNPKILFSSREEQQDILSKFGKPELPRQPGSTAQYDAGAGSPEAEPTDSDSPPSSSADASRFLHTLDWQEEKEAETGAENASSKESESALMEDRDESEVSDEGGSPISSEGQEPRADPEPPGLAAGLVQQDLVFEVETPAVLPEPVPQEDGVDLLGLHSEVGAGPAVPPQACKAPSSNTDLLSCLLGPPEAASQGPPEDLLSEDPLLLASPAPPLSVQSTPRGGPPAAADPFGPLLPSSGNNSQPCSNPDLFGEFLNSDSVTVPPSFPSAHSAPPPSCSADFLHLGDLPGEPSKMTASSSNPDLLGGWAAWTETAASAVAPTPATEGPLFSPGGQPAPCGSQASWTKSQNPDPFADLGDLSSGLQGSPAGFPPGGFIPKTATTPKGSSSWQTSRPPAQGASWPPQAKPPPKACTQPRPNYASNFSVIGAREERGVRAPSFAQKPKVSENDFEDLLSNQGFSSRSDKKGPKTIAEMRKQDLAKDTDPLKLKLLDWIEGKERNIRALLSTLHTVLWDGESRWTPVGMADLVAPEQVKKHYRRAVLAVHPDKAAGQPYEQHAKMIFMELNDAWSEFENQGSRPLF

[2] = target: T2, SNF-related serine/threonine-protein kinase (Homo sapiens) (UniProt Q9NRH2); assay: Selectivity interaction (KinomeScan (DiscoverX)) EUB0000092b SNRK; details: at 10 µM
T2 sequence (whole entry): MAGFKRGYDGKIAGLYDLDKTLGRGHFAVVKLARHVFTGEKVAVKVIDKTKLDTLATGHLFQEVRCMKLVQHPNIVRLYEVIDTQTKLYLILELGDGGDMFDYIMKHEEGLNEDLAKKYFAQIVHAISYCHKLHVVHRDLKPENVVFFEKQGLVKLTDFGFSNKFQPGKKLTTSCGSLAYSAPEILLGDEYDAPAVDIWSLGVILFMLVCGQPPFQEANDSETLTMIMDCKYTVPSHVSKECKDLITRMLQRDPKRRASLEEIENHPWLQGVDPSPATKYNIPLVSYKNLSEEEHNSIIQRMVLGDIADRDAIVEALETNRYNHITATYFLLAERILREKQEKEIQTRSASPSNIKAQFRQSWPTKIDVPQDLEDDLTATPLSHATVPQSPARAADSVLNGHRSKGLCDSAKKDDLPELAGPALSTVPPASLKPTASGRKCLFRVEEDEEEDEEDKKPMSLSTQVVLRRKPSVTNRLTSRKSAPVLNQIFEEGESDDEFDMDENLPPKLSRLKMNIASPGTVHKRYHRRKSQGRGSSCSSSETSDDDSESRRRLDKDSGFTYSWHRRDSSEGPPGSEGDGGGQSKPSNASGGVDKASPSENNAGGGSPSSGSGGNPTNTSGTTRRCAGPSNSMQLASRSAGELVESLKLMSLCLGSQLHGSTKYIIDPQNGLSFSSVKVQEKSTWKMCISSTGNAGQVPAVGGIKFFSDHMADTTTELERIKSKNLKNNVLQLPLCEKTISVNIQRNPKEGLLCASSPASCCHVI

[3] = target: Cyclin-dependent kinase 4/cyclin D1 (Homo sapiens) (UniProt P11802+P24385); assay: (§1) Selectivity interaction (KinomeScan (DiscoverX)) EUB0000666a CDK4; type: protein-complex assay; details: at 10 µM
[4] = target: CDK4/Cyclin D3 (Homo sapiens) (UniProt P11802+P30281); assay: as §1; type: protein-complex assay; details: at 10 µM
[5] = target: Cyclin-dependent kinase 12 (Homo sapiens, UniProt Q9NYV4); assay: Selectivity interaction (ActivX KiNativ screen (kinase selectivity in THP-1 cell lysates)) EUB0000639a CDK12; type: subcellular; details: lysate
[6] = target: Ribosomal protein S6 kinase alpha-1 (Homo sapiens, UniProt Q15418); assay: Selectivity interaction (Kinase panel (Invitrogen)) EUB0000639a RPS6KA1; details: at 200 nM
Sequence of Ribosomal protein S6 kinase alpha-1 (Q15418 whole entry): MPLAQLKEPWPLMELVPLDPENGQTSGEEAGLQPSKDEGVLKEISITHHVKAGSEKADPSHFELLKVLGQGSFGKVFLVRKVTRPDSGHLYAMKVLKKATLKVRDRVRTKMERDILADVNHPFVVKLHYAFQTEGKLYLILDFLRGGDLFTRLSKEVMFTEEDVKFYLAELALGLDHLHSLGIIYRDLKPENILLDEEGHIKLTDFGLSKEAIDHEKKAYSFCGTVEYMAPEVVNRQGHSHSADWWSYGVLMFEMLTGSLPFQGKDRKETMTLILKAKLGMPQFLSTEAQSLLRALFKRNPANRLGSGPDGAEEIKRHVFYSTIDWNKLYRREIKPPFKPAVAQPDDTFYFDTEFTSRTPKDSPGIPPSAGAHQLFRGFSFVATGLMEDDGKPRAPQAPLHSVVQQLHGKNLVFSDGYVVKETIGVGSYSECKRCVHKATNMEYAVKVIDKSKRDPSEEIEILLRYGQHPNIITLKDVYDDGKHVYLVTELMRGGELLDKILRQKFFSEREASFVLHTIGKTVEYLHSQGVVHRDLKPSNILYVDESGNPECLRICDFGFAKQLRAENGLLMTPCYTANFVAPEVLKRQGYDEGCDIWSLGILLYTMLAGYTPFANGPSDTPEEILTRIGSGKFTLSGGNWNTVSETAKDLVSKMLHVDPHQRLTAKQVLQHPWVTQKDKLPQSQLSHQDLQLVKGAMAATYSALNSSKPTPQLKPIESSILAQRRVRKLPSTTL

Sequence of Cyclin-dependent kinase 12 (Q9NYV4 whole entry, looked up): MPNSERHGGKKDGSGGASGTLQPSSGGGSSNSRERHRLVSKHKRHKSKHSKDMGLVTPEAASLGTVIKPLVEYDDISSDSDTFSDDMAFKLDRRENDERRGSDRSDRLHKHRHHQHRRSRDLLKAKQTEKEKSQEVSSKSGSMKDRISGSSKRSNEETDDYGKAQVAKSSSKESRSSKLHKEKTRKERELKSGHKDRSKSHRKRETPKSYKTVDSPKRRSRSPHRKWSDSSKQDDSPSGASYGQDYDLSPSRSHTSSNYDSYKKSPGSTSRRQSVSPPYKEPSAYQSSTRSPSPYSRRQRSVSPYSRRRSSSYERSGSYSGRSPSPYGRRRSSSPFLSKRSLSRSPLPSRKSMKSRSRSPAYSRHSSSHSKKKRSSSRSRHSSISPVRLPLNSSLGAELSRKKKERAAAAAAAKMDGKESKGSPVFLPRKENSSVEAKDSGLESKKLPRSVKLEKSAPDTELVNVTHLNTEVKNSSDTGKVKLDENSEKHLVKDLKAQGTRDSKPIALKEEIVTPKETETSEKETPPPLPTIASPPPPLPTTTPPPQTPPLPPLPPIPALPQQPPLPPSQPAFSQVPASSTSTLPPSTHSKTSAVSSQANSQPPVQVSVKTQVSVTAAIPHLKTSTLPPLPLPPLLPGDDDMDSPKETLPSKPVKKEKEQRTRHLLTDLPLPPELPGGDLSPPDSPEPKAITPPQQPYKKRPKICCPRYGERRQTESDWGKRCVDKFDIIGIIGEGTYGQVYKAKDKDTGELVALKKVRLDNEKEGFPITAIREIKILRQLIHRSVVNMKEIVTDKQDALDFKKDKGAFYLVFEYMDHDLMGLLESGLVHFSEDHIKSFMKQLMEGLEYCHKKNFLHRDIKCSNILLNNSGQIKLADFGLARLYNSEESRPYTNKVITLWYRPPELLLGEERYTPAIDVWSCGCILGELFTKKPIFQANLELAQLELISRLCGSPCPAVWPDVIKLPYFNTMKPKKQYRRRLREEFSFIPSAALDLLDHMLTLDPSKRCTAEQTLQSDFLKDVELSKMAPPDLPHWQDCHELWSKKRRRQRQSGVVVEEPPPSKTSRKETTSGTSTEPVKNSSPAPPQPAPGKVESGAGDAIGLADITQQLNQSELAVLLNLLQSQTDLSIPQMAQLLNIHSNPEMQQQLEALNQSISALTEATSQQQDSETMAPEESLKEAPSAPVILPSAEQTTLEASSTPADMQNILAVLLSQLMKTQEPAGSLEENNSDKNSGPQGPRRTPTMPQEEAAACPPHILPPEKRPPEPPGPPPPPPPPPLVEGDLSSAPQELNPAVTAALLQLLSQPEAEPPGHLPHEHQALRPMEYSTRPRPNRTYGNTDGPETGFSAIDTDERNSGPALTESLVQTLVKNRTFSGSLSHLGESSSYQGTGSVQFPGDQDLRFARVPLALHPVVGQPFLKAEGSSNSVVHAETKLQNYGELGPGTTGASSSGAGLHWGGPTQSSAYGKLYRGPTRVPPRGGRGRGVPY

`CC(C)(O)[C@H](F)CN1Cc2cc(NC(=O)c3cnn4cccnc34)c(N3CCOCC3)cc2C1=O` showed a dTM [1] of 2.3 K.

`CCC(=O)N1CCN(c2ccc(-n3c(=O)ccc4cnc5ccc(-c6cnc7ccccc7c6)cc5c43)cc2C(F)(F)F)CC1` gave a % of control [2] of 60%.

Compound `O=C(NOC[C@H](O)CO)c1ccc(F)c(F)c1Nc1ccc(I)cc1F` has a % of control [3] of 93% and a % of control [4] of 84%.

For `CC[C@@H]1[C@H](F)C(=O)N[C@@H]1COc1nccc2cc(C(N)=O)c(OC)cc12` [ZIMLOVISERTIB], the % of inhibition ([5]; at 0.01 µM) was -24.7%, the % of inhibition ([5]; at 0.04 µM) was -15% and the % of inhibition ([5]; at 0.2 µM) was -4.7%. For the same compound, the % of inhibition ([5]; at 1 µM) was -15.6%, the % of inhibition ([5]; at 5 µM) was -19.6% and the % of inhibition [6] was 2.83%.
